Tested on: not listed separately
Assay: Inhibition of YAP/TAZ-TEAD interaction in human SK-HEP1 cells incubated for 24 hrs by luciferase reporter gene assay
Format: cell-based
Settings: not given

| SMILES | IC50 [nM] |
| --- | --- |
| CCCn1cc2c3cc(C(=O)O)ccc3n(-c3ccc(C(F)(F)F)cc3)c2n1 | 7 |
| O=C(O)c1ccc2c(c1)c1cn(C(F)(F)F)nc1n2-c1ccc(C(F)(F)F)cc1 | 7 |
| Cn1cc2c(n1)c1cc(C(=O)O)ccc1n2C1CCCC1 | 17 |
| O=C(O)c1cnc2c(cnn2C2CCCC2)c1 | 16 |
| N#CCn1cc2c3cc(C(=O)O)ccc3n(-c3ccc(C(F)(F)F)cc3)c2n1 | 27 |
| CNS(=O)(=O)c1ccc(Nc2ccc(C(F)(F)F)cc2)c(-c2cn(C)cn2)c1 | 1 |
| Cn1ncc2c3cc(C(=O)O)ccc3n(-c3ccc(C(F)(F)F)cc3)c21 | 16.6 |
| CCCc1nn(C2CCC(F)(F)CC2)c2ccc(C(=O)O)cc12 | 1.1 |
| CNS(=O)(=O)c1ccc(NCc2ccccc2)c(-c2cn(C)cn2)c1 | 29 |
| Cn1cc2c(n1)c1cc(C(=O)O)ccc1n2-c1ccc(C(F)(F)F)cc1 | 9 |
| Cn1cc2c(n1)c1cc(C(=O)O)ccc1n2C1CCCCC1 | 0.73 |

Continued, values first:

| IC50 [nM] | SMILES |
| --- | --- |
| 96 | Cn1cc2c3cc(C(=O)O)ccc3n(CC3CCCCC3)c2n1 |
| 3 | Cn1cc2c3cc(C(=O)O)ccc3n(-c3ccc(OC(F)(F)F)cc3)c2n1 |
| 163 | Cn1cc2c3cc(C(=O)O)ccc3n(-c3ccc(F)cc3)c2n1 |
| 42 | Cn1cc2c3cc(C(=O)O)ccc3n(C3CCC(C(F)(F)F)CC3)c2n1 (stereo not drawn) |
| 5 | Cn1cc2c3cc(C(=O)O)ccc3n(-c3ccc(C(F)(F)F)cn3)c2n1 |
| 0.16 | Cn1cc2c3cc(C(=O)O)ccc3n(C3CCCCC3)c2n1 |
| 27 | Cn1cc2c3cc(C(=O)O)ccc3n(-c3ccc(OC(F)(F)F)cc3F)c2n1 |
| 30 | Cn1cc2c3cc(C(=O)O)ccc3n(CC3CCC(C(F)(F)F)CC3)c2n1 (stereo not drawn) |
| 250 | COC1CCC(Cn2c3ccc(C(=O)O)cc3c3cn(C)nc32)CC1 (stereo not drawn) |
| 11 | Cn1cc2c3cc(C(=O)O)ccc3n(-c3cccc(OC(F)(F)F)c3)c2n1 |
| 14 | Cn1cc2c3cc(C(=O)O)ccc3n(-c3ccc(C(F)(F)F)nc3)c2n1 |
| > 30000 | Cn1cc2c3cc(C(=O)O)ccc3n(C)c2n1 |

Target: T1, Transcriptional enhancer factor TEF-1 (Homo sapiens, UniProt P28347)
Assay: Binding affinity to human TEAD1 (209 to 426 residues) expressed in Escherichia coli BL21 Star (DE3) by surface plasmon resonance assay
Settings: not given

T1 sequence (P28347 whole entry, the tested form may be a part): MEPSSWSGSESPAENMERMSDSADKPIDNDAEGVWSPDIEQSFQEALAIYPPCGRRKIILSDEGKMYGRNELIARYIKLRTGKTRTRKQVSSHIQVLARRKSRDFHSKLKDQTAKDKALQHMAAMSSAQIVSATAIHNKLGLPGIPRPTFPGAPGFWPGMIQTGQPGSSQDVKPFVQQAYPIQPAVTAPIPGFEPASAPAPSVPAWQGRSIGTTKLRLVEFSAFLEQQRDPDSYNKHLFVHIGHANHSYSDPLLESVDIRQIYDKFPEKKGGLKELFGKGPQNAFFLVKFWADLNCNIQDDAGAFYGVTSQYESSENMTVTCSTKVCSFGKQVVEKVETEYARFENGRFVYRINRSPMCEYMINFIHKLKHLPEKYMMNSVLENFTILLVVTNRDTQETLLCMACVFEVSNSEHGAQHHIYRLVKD

| Kd [nM] | SMILES |
| --- | --- |
| 5800 | CCCc1nn(C2CCC(F)(F)CC2)c2ccc(C(=O)O)cc12 |

Target: T2, Transcriptional enhancer factor TEF-4 (Homo sapiens, UniProt Q15562)
Assay: Binding affinity to human TEAD2 (217 to 447 residues) expressed in Escherichia coli BL21 Star (DE3) by surface plasmon resonance assay
Settings: not given

T2 sequence (Q15562 whole entry, the tested form may be a part): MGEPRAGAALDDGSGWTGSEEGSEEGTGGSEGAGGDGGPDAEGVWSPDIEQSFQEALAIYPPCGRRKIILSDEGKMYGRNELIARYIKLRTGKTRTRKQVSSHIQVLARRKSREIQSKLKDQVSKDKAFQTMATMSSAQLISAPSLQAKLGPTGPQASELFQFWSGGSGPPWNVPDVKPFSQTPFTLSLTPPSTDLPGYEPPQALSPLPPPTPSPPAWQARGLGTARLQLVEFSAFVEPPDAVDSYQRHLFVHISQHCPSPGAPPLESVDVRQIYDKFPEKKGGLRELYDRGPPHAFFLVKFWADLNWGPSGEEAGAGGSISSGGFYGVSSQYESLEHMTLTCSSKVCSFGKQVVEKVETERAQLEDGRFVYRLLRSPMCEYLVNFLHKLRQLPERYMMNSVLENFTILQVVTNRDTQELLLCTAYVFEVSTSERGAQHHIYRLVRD

| Kd [nM] | SMILES |
| --- | --- |
| 43000 | CCCc1nn(C2CCC(F)(F)CC2)c2ccc(C(=O)O)cc12 |

Target: T3, Transcriptional enhancer factor TEF-3 (Homo sapiens, UniProt Q15561)
Assay: Binding affinity to human TEAD4 (217 to 434 residues) expressed in Escherichia coli BL21 Star (DE3) by surface plasmon resonance assay
Settings: not given

T3 sequence (Q15561 whole entry, the tested form may be a part): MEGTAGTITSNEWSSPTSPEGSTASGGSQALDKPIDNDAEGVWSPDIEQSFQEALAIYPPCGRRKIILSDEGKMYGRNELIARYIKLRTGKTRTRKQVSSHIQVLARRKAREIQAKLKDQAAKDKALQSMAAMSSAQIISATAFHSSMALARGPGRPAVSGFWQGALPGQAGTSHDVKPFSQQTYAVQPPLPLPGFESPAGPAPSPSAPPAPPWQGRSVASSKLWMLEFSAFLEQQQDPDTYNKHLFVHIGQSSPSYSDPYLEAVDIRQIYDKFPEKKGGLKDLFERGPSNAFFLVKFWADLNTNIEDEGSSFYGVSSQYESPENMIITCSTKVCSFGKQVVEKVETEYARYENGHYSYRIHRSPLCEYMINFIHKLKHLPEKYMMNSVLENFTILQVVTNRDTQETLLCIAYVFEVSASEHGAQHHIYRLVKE

| Kd [nM] | SMILES |
| --- | --- |
| 7600 | CCCc1nn(C2CCC(F)(F)CC2)c2ccc(C(=O)O)cc12 |

Tested on: not listed separately
Assay: Solubility of the compound in PBS buffer at pH 7.4
Format: physicochemical
Settings: not given

| solubility [µg/mL] | SMILES |
| --- | --- |
| > 40 | Cn1cc2c3cc(C(=O)O)ccc3n(CC3CCCCC3)c2n1 |
| > 40 | Cn1cc2c3cc(C(=O)O)ccc3n(C3CCC(C(F)(F)F)CC3)c2n1 (stereo not drawn) |

Tested on: not listed separately
Assay: Solubility of the compound in SGF buffer at pH 1.2
Format: physicochemical
Settings: not given

| solubility [µg/mL] | SMILES |
| --- | --- |
| < 1 | Cn1cc2c3cc(C(=O)O)ccc3n(CC3CCCCC3)c2n1 |
| < 1 | Cn1cc2c3cc(C(=O)O)ccc3n(C3CCC(C(F)(F)F)CC3)c2n1 (stereo not drawn) |

Tested on: not listed separately
Assay: Microsomal stability in human microsomes measured per 10^6 cells
Format: ADME, Microsome
Settings: not given

| Stability [µL/min] | SMILES |
| --- | --- |
| 12 | Cn1cc2c3cc(C(=O)O)ccc3n(-c3ccc(OC(F)(F)F)cc3)c2n1 |
| < 10 | Cn1cc2c3cc(C(=O)O)ccc3n(C)c2n1 |

Tested on: not listed separately
Assay: Microsomal stability in mouse microsomes measured per 10^6 cells
Format: ADME, Microsome
Settings: not given

| Stability [µL/min] | SMILES |
| --- | --- |
| < 10 | Cn1cc2c3cc(C(=O)O)ccc3n(C)c2n1 |

Tested on: not listed separately
Assay: Microsomal stability in human hepatocyte measured per 10^6 cells
Format: ADME, cell-based
Settings: hepatocytes

| Stability [µL/min] | SMILES |
| --- | --- |
| 19 | Cn1cc2c3cc(C(=O)O)ccc3n(-c3ccc(OC(F)(F)F)cc3)c2n1 |
| < 4 | O=C(O)c1ccc2c(c1)c1cn(C(F)(F)F)nc1n2-c1ccc(C(F)(F)F)cc1 |

Tested on: NCI-H226
Assay: Cytotoxicity against human NCI-H226 cells assessed as cell viability at 10 uM measured for 7 days by celltiter-glo assay
Format: functional, cell-based
Settings: NCI-H226, 168 h

| SMILES | IC50 [nM] |
| --- | --- |
| CNS(=O)(=O)c1ccc(Nc2ccc(C(F)(F)F)cc2)c(-c2cn(C)cn2)c1 | 3 |
| CNS(=O)(=O)c1ccc(NCc2ccccc2)c(-c2cn(C)cn2)c1 | 140 |

Target: T1, Transcriptional enhancer factor TEF-1
Assay: Binding affinity to human TEAD1 (209 to 426 residues) expressed in Escherichia coli BL21 Star (DE3) assessed as change in melting temperature incubated for 2 hrs by measuring tryptophane fluorescence by Nano Differential scanning fluorometry
Settings: not given

| ΔTm [°C] | SMILES |
| --- | --- |
| 10.2 | CNS(=O)(=O)c1ccc(Nc2ccc(C(F)(F)F)cc2)c(-c2cn(C)cn2)c1 |
| 3.4 | CNS(=O)(=O)c1ccc(NCc2ccccc2)c(-c2cn(C)cn2)c1 |

Target: T2, Transcriptional enhancer factor TEF-4
Assay: Binding affinity to human TEAD2 (217 to 447 residues) expressed in Escherichia coli BL21 Star (DE3) assessed as change in melting temperature incubated for 2 hrs by measuring tryptophane fluorescence by Nano Differential scanning fluorometry
Settings: not given

| ΔTm [°C] | SMILES |
| --- | --- |
| 7.2 | CNS(=O)(=O)c1ccc(Nc2ccc(C(F)(F)F)cc2)c(-c2cn(C)cn2)c1 |
| -0.7 | CNS(=O)(=O)c1ccc(NCc2ccccc2)c(-c2cn(C)cn2)c1 |

Target: T4, Transcriptional enhancer factor TEF-5 (Homo sapiens, UniProt Q99594)
Assay: Binding affinity to human TEAD3 (216 to 435 residues) expressed in Escherichia coli BL21 Star (DE3) assessed as change in melting temperature incubated for 2 hrs by measuring tryptophane fluorescence by Nano Differential scanning fluorometry
Settings: not given

T4 sequence (Q99594 whole entry, the tested form may be a part): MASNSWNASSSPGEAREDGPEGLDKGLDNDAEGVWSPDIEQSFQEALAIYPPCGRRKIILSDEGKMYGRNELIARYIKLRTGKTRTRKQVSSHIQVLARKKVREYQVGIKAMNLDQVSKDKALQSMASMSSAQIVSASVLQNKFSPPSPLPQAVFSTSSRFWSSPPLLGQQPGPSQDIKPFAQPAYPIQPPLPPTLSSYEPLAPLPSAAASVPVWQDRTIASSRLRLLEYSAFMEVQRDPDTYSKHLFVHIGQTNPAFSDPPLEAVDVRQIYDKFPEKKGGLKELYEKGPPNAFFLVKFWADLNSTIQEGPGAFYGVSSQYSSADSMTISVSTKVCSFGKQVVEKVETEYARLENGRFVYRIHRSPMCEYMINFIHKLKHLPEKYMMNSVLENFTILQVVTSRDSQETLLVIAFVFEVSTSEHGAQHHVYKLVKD

| ΔTm [°C] | SMILES |
| --- | --- |
| 2 | CNS(=O)(=O)c1ccc(Nc2ccc(C(F)(F)F)cc2)c(-c2cn(C)cn2)c1 |
| 0.4 | CNS(=O)(=O)c1ccc(NCc2ccccc2)c(-c2cn(C)cn2)c1 |

Target: T3, Transcriptional enhancer factor TEF-3
Assay: Binding affinity to human TEAD4 (217 to 434 residues) expressed in Escherichia coli BL21 Star (DE3) assessed as change in melting temperature incubated for 2 hr by measuring tryptophane fluorescence by Nano Differential scanning fluorometry
Settings: not given

| ΔTm [°C] | SMILES |
| --- | --- |
| 3.5 | CNS(=O)(=O)c1ccc(Nc2ccc(C(F)(F)F)cc2)c(-c2cn(C)cn2)c1 |
| -0.1 | CNS(=O)(=O)c1ccc(NCc2ccccc2)c(-c2cn(C)cn2)c1 |

Target: T1, Transcriptional enhancer factor TEF-1
Assay: Inhibition of pSF-CMV-P-FLAG tagged human TEAD1 palmitoylation transfected in HEK293 cells at 10 uM incubated for 6 hrs by Western blot analysis relative to control
Format: cell-based
Settings: not given

| inhibition [%] | SMILES |
| --- | --- |
| 97 | CNS(=O)(=O)c1ccc(Nc2ccc(C(F)(F)F)cc2)c(-c2cn(C)cn2)c1 |
| 96 | CNS(=O)(=O)c1ccc(NCc2ccccc2)c(-c2cn(C)cn2)c1 |

Target: T2, Transcriptional enhancer factor TEF-4
Assay: Inhibition of pSF-CMV-P-FLAG tagged human TEAD2 palmitoylation transfected in HEK293 cells at 10 uM incubated for 6 hrs by Western blot analysis relative to control
Format: cell-based
Settings: not given

| inhibition [%] | SMILES |
| --- | --- |
| 69 | CNS(=O)(=O)c1ccc(Nc2ccc(C(F)(F)F)cc2)c(-c2cn(C)cn2)c1 |
| 33 | CNS(=O)(=O)c1ccc(NCc2ccccc2)c(-c2cn(C)cn2)c1 |

Target: T4, Transcriptional enhancer factor TEF-5
Assay: Inhibition of pSF-CMV-P-FLAG tagged human TEAD3 palmitoylation transfected in HEK293 cells at 10 uM incubated for 6 hrs by Western blot analysis relative to control
Format: cell-based
Settings: not given

| inhibition [%] | SMILES |
| --- | --- |
| 29 | CNS(=O)(=O)c1ccc(Nc2ccc(C(F)(F)F)cc2)c(-c2cn(C)cn2)c1 |
| 10 | CNS(=O)(=O)c1ccc(NCc2ccccc2)c(-c2cn(C)cn2)c1 |

Target: T3, Transcriptional enhancer factor TEF-3
Assay: Inhibition of pSF-CMV-P-FLAG tagged human TEAD4 palmitoylation transfected in HEK293 cells at 10 uM incubated for 6 hrs by Western blot analysis relative to control
Format: cell-based
Settings: not given

| inhibition [%] | SMILES |
| --- | --- |
| 70 | CNS(=O)(=O)c1ccc(Nc2ccc(C(F)(F)F)cc2)c(-c2cn(C)cn2)c1 |
| 19 | CNS(=O)(=O)c1ccc(NCc2ccccc2)c(-c2cn(C)cn2)c1 |
